Reference: patent US12304912B2, “Fused bicyclic RAF inhibitors and methods for use thereof” (Jazz Pharmaceuticals Ireland Limited, priority 2020, dated 2025)
Converted amounts (≈) assume the structure as drawn. Read-outs that look alike come from different tables or passages of the source.

What was measured:
[1] = test system: constitutive ERK phosphorylation in HCT-116 cells; test: HCT-116 AlphaLISA SureFire pERK1/2 cellular assay; assay type: cell-based, human; settings: Homo sapiens, HCT-116; HCT116 cells, 2 hr, Abs; read-out: pERK HCT116 (2 hr) Abs pIC50 (converted)
Method: HCT-116 AlphaLISA SureFire pERK1/2 Cellular Assay […] […] Assay read outs took place 2 or 24 hours after dosing with compounds. On the first day, HCT-116 cells were harvested, resuspended in growth medium (McCoys5A with Glutamax (Life Technologies 36600021) and 10% heat-inactivated fetal bovine serum (Sigma F9665)), and counted. Cells were plated in 100 μl per well in each well of a 96-well culture dish (Sigma CLS3598) to a final density of 30,000 (2 hr read) or 15,000 (24 hr read) cells per well and incubated over night at 37° C. and 5% CO2. On day 2, the growth medium was exchanged for dosing medium (McCoys5A with Glutamax (Life Technologies 36600021) and 1% heat-inactivated fetal bovine serum (Sigma F9665)) and the cells were dosed with compounds to produce a 10-point dose response, where the top concentration was 1 μM and subsequent concentrations were at 1/3 log dilution intervals. A matched DMSO control was included. The cells were subsequently incubated for either 2 or 24 hours at 37° C. and 5% CO2. After incubation, media was removed and the cells were incubated with lysis buffer containing phosphatase inhibitors for 15 minutes at room temperature. Cell lysates were transferred to a 12 area 96 well white Optiplate™ (Perkin Elmer 6005569) and incubated with anti-mouse IgG acceptor beads, a biotinylated anti-ERK1/2 rabbit antibody recognizing both phosphorylated and non-phosphorylated ERK1/2, a mouse antibody targeted to the Thr202/Tyr204 epitope and recognizing phosphorylated ERK proteins only, and streptavidin-coated donor beads. The biotinylated antibody binds to the streptavidin-coated donor beads and the phopsho-ERK1/2 antibody binds to the acceptor beads. […] Both antibodies bound to phosphorylated ERK proteins, bringing the donor and acceptor beads into close proximity. All data were analyzed using the Dotmatics or GraphPad Prism software packages. Inhibition of ERK phosphorylation was assessed by determination of the absolute IC50 value, which is defined as the concentration of compound required to decrease the level of phosphorylated ERK proteins by 50% when compared to DMSO control.

FeSSIF solubility assay = assay type: physicochemical; settings: fed state simulated intestinal fluid (FeSSIF), thermodynamic from solid, pH 5 acetate buffer, 37° C., read-out: FESSIF Sol
Method: FeSSIF Solubility Assay 1 mL of fed state simulated intestinal fluid (FeSSIF), prepared using FaSSIF/FeSSIF/FaSSGF powder (Biorelevant.com) and pH 5 acetate buffer, was added to 1.0 mg of compound and then incubated for 24 h (Bioshake iQ, 650 rpm, 37° C.). Following filtration under positive pressure, the concentration of compound in solution was assessed by LC-UV in comparison to the response for a calibration standard of known concentration (250 μM). FeSSIF solubility results are described in Tables 1-2.

[2] = test system: BRAF monomers in A375 cells; test: A375 AlphaLISA SureFire pERK1/2 cellular assay (monomer); assay type: cell-based; settings: Homo sapiens, A-375; A375 cells, 1 hr; read-out: pERK A375 (1 hr) pIC50 (converted)
Method: (§1) The human HCT-116 colorectal carcinoma cell line (ATCC CCL-247) endogenously expresses the KRAS^G13D mutation, which leads to constitutive activation of the MAP kinase pathway and phosphorylation of ERK. […] Assay read outs took place 2 or 24 hours after dosing with compounds. On the first day, HCT-116 cells were harvested, resuspended in growth medium (McCoys5A with Glutamax (Life Technologies 36600021) and 10% heat-inactivated fetal bovine serum (Sigma F9665)), and counted. Cells were plated in 100 μl per well in each well of a 96-well culture dish (Sigma CLS3598) to a final density of 30,000 (2 hr read) or 15,000 (24 hr read) cells per well and incubated over night at 37° C. and 5% CO2. On day 2, the growth medium was exchanged for dosing medium (McCoys5A with Glutamax (Life Technologies 36600021) and 1% heat-inactivated fetal bovine serum (Sigma F9665)) and the cells were dosed with compounds to produce a 10-point dose response, where the top concentration was 1 μM and subsequent concentrations were at 1/3 log dilution intervals. A matched DMSO control was included. The cells were subsequently incubated for either 2 or 24 hours at 37° C. and 5% CO2. After incubation, media was removed and the cells were incubated with lysis buffer containing phosphatase inhibitors for 15 minutes at room temperature. Cell lysates were transferred to a 12 area 96 well white Optiplate™ (Perkin Elmer 6005569) and incubated with anti-mouse IgG acceptor beads, a biotinylated anti-ERK1/2 rabbit antibody recognizing both phosphorylated and non-phosphorylated ERK1/2, a mouse antibody targeted to the Thr202/Tyr204 epitope and recognizing phosphorylated ERK proteins only, and streptavidin-coated donor beads. The biotinylated antibody binds to the streptavidin-coated donor beads and the phopsho-ERK1/2 antibody binds to the acceptor beads. Plates were read on an EnVision reader (Perkin Elmer) and excitation of the beads at 680 nm with a laser induced the release of singlet oxygen molecules from the donor beads that trigger energy transfer to the acceptor beads in close proximity, producing a signal that can be measured at […]. Both antibodies bound to phosphorylated ERK proteins, bringing the donor and acceptor beads into close proximity. All data were analyzed using the Dotmatics or GraphPad Prism software packages. Inhibition of ERK phosphorylation was assessed by determination of the absolute IC50 value, which is defined as the concentration of compound required to decrease the level of phosphorylated ERK proteins by 50% when compared to DMSO control.
A375 AlphaLISA SureFire pERK1/2 Cellular Assay (Monomer)
The human A375 melanoma cell line (ATCC CRL-1619) endogenously expresses the BRAF^V600E mutation, which leads to constitutive activation of the MAP kinase pathway and phosphorylation of ERK. In BRAF^V600E mutant tumours, BRAF signals as a monomer to activate ERK. To determine whether compounds can inhibit BRAF monomers in A375 cells, they were tested using AlphaLISA® SureFire® technology (Perkin Elmer p-ERK1/2 p-T202/Y204 assay kit ALSU-PERK-A10K). The main procedure is essentially the same as described above for HCT-116 cells, with the following adjustments: The A375 cells were cultivated and dosed in Dulbecco's modified Eagle's medium containing 4.5 g/L D-glucose (Sigma D6546), 10% heat-inactivated fetal bovine serum (Sigma F9665), and 1% Sodium-Pyruvate (Sigma S8636), and seeded with a seeding density of 30,000 cells per well. No media exchange was performed before dosing with compounds to produce a 10-point dose response, where the top concentration was 10 μM and subsequent concentrations were at 1/2 log dilution intervals. Subsequently, the cells were incubated for 1 hour at 37° C. and 5% CO2 before lysis.

[3] = test system: RAF dimers in HCT-116 cells; test: HCT-116 AlphaLISA SureFire pERK1/2 cellular assay (dimer); assay type: cell-based; settings: Homo sapiens, HCT-116, 1 hr
Method: as §1
HCT-116 AlphaLISA SureFire pERK1/2 Cellular Assay (Dimer)
The human HCT-116 colorectal carcinoma cell line (ATCC CCL-247) endogenously expresses the KRAS^G13D mutation, which leads to constitutive activation of the MAP kinase pathway and phosphorylation of ERK. First generation RAF inhibitors can promote RAF dimer formation in KRAS mutant tumours leading to a paradoxical activation of the pathway. To determine whether compounds can circumvent this problem and inhibit RAF dimers in HCT-116 cells, they were tested using AlphaLISA® SureFire® technology (Perkin Elmer p-ERK1/2 p-T202/Y204 assay kit ALSU-PERK-A10K). The main procedure is essentially the same as described above, with the following adjustments: Cells were seeded with the seeding density of 30,000 cells per well. On the second day (the day of dosing) no medium change was performed and the cells were dosed with 1 μM of Encorafenib for 1 hour (at 37° C. and 5% CO2) to induce RAF dimers and promote paradoxical dimer-dependent pERK signalling. After incubation, the cells were washed, 100 μl fresh growth medium was added, and cells were dosed with compounds of interest to produce a 10-point dose response, where the top concentration was 10 μM and subsequent concentrations are at 1/2 log dilution intervals. Cells were incubated for another hour at 37° C. and 5% CO2 before lysis and processing with the pERK AlphaLISA® SureFire® kit as described above. […]

[4] = Microsomal stability assay, human liver microsomes (HLM); assay type: in vitro ADME; settings: 0.5 mg/mL protein, 1 μM substrate
Method: (§2) Microsomal Stability Assay
(§3) The stability studies were performed manually using the substrate depletion approach. Test compounds were incubated at 37° C. with cryo-preserved mouse or human liver microsomes (Corning) at a protein concentration of 0.5 mg·mL^−1 and a final substrate concentration of 1 μM. Aliquots were removed from the incubation at defined timepoints and the reaction was terminated by adding to ice-cold organic solvent. Compound concentrations were determined by LC-MS/MS analysis. The natural log of the percentage of compound remaining was plotted against each time point and the slope determined. The half-life (t1/2) and CLint were calculated using Equations 1 and 2, respectively.
(§4) HLM (human liver microsomes) and MLM (mouse liver microsomes) stability assay results are described in Tables 1-2.

[5] = Microsomal stability assay, mouse liver microsomes (MLM); assay type: in vitro ADME; settings: 0.5 mg/mL protein, 1 μM substrate
Method: as §2, §3, §4

[6] = Plasma protein binding assay, human plasma (hPPB); assay type: in vitro ADME; settings: 5 μM
Method: (§5) Plasma Protein Binding Assay The plasma protein binding was determined by the equilibrium dialysis method. A known concentration of compound (5 μM) in previously frozen human or mouse plasma (Sera Labs) was dialysed against phosphate buffer using a RED device (Life Technologies) for 4 hours at 37° C. The concentration of compound in the protein containing (PC) and protein free (PF) sides of the dialysis membrane were determined by LC-MS/MS and the % free compound was determined by equation 4. Data analysis was performed using Excel (Microsoft, USA). % free=(1−((PC−PF)/PC))×100 (4) hPPB (human plasma protein binding) and mPPB (mouse plasma protein binding) results are described in Tables 1-2.

[7] = Plasma protein binding assay, mouse plasma (mPPB); assay type: in vitro ADME; settings: 5 μM
Method: as §5

[8] = HCT116 cells pre-dosed with 1 μM Encorafenib, read-out: pERK HCT116 dimer (1 hr) pIC50 (converted)
[9] = equilibrium dialysis 4 hours 37° C.
[10] = equilibrium dialysis 4 hours at 37° C.

Compound | IC50 [1] | IC50 [2] | microsomal CLint at 1 μM [4] | microsomal CLint at 1 μM [5] | hPPB (% free) [6, 9] | mPPB (% free) [7, 9] | other results
Cn1ncc2cc(-c3c[nH]c(C4COc5ccc(Oc6ccnc7c6CCC(=O)N7)cc5C4)n3)ccc21 (stereo not shown) [Compound 131, 5-[3-[4-(1-methylindazol-5-yl)-1H-imidazol-2-yl]chroman-6-yl]oxy-3,4-dihydro-1H-1,8-naphthyridin-2-one] | > 1 µM | – | – | – | – | – | solubility thermodynamic at 24 h (FeSSIF solubility assay): 12.2 µg/mL (≈ 24.8 µM)
c1ccc(-c2c[nH]c(C3COc4ccc(Oc5ccnc(NC6CCC6)c5)cc4C3)n2)cc1 (stereo not shown) [Compound 142, N-cyclobutyl-4-[3-(4-phenyl-1H-imidazol-2-yl)chroman-6-yl]oxy-pyridin-2-amine] | > 1 µM | – | – | – | – | – | solubility thermodynamic at 24 h (FeSSIF solubility assay): 135 µg/mL (≈ 309 µM)
COc1ncc(-c2c[nH]c(C3COc4ccc(Oc5ccnc6c5CCC(=O)N6)cc4C3)n2)c(OC)n1 (stereo not shown) [Compound 18, 5-[3-[4-(2,4-dimethoxypyrimidin-5-yl)-1H-imidazol-2-yl]chroman-6-yl]oxy-3,4-dihydro-1H-1,8-naphthyridin-2-one] | – | 10 µM | 71.1 µL/min/mg | 32.9 µL/min/mg | 1.2 % free | 2.5 % free | IC50 [3, 8]: 3.63 µM
CN1CCN(Cc2cc(C(F)(F)F)c3nc(C4COc5ccc(Oc6ccnc7c6CCC(=O)N7)cc5C4)[nH]c3c2)CC1 (stereo not shown) [Compound 28] | – | 1.82 µM | 68.1 µL/min/mg | 31.1 µL/min/mg | 0.1 % free | 0.5 % free | –
Cn1cc(-c2c[nH]c(C3COc4ccc(Oc5ccnc6c5CCC(=O)N6)cc4C3)n2)cn1 (stereo not shown) [Compound 108, 5-[3-[4-(1-methylpyrazol-4-yl)-1H-imidazol-2-yl]chroman-6-yl]oxy-3,4-dihydro-1H-1,8-naphthyridin-2-one] | > 1 µM | 6.31 µM | – | – | – | – | IC50 ([3]; HCT116 cells, dimer, read-out: pERK HCT116 dimer (1 hr) plC50 (converted)): 0.389 µM
c1ccc(-c2c[nH]c(C3COc4ccc(Oc5ccnc(Nc6nccs6)c5)cc4C3)n2)cc1 (stereo not shown) [Compound 141] | > 1 µM | – | – | – | – | – | microsomal CLint at 1 μM ([4]; 37° C.): 1 µL/min/mg; microsomal CLint at 1 μM ([5]; 37° C.): 21.8 µL/min/mg; hPPB (% free) [6, 10]: <0.1 % free; mPPB (% free) [7, 10]: 0.5 % free
O=C(NC1CC1)c1cc(Oc2ccc3c(c2)CC(c2nc(-c4ccccc4)c[nH]2)CO3)ccn1 (stereo not shown) [Compound 158, N-cyclopropyl-4-[3-(4-phenyl-1H-imidazol-2-yl)chroman-6-yl]oxy-pyridine-2-carboxamide] | 0.741 µM | – | – | – | – | – | microsomal CLint at 1 μM ([4]; 37° C.): 21.3 µL/min/mg; microsomal CLint at 1 μM ([5]; 37° C.): 62.8 µL/min/mg; hPPB (% free) [6, 10]: 0.3 % free; mPPB (% free) [7, 10]: 0.2 % free
O=C1CCc2c(Oc3ccc4c(c3)CC(c3nc(-c5ccccc5F)c[nH]3)CO4)ccnc2N1 (stereo not shown) [Compound 3, 5-[3-[4-(2-fluorophenyl)-1H-imidazol-2-yl]chroman-6-yl]oxy-3,4-dihydro-1H-1,8-naphthyridin-2-one] | – | 0.0437 µM | 30.3 µL/min/mg | 34.4 µL/min/mg | 0.2 % free | 0.5 % free | IC50 [3, 8]: 0.112 µM
